± gives the uncertainty stated by the source.
Test: xn = mol fraction of the nth substance listed

CC[NH3+].O=[N+]([O-])[O-] + O=[N+]([O-])[O-].O=[N+]([O-])[O-].[Ca+2] + O
100 kPa
Settings | electrical conductivity [S/m] | viscosity [mPa·s]
223 K, x2 = 0.05128, x3 = 0.1778 | 0.001 ± 0.001 | –
233 K, x2 = 0.05128, x3 = 0.1778 | 0.009 ± 0.001 | –
233 K, x2 = 0.09755, x3 = 0.3019 | 0.009 ± 0.001 | –
243 K, x2 = 0.05128, x3 = 0.1778 | 0.034 ± 0.003 | –
243 K, x2 = 0.09755, x3 = 0.3019 | 0.034 ± 0.003 | –
253 K, x2 = 0.05128, x3 = 0.1778 | 0.095 ± 0.01 | –
253 K, x2 = 0.09755, x3 = 0.3019 | 0.095 ± 0.01 | –
263 K, x2 = 0.05128, x3 = 0.1778 | 0.209 ± 0.021 | –
263 K, x2 = 0.09755, x3 = 0.3019 | 0.209 ± 0.021 | –
273 K, x2 = 0.05128, x3 = 0.1778 | 0.394 ± 0.039 | –
273 K, x2 = 0.09755, x3 = 0.3019 | 0.394 ± 0.039 | –
283 K, x2 = 0.05128, x3 = 0.1778 | 0.662 ± 0.066 | –
283 K, x2 = 0.09755, x3 = 0.3019 | 0.662 ± 0.066 | –
288.15 K, x2 = 0.05128, x3 = 0.1778 | – | 131.6 ± 7.5
288.15 K, x2 = 0.09755, x3 = 0.3019 | – | 160.5 ± 8.5
293 K, x2 = 0.05128, x3 = 0.1778 | 1.02 ± 0.1 | –
293 K, x2 = 0.09755, x3 = 0.3019 | 1.02 ± 0.1 | –
293.15 K, x2 = 0.05128, x3 = 0.1778 | – | 106.7 ± 3.9
293.15 K, x2 = 0.09755, x3 = 0.3019 | – | 127.9 ± 5.6
298.15 K, x2 = 0.05128, x3 = 0.1778 | – | 87.1 ± 2.6
298.15 K, x2 = 0.09755, x3 = 0.3019 | – | 102.8 ± 3.6
303 K, x2 = 0.05128, x3 = 0.1778 | 1.47 ± 0.15 | –
303 K, x2 = 0.09755, x3 = 0.3019 | 1.47 ± 0.15 | –
303.15 K, x2 = 0.05128, x3 = 0.1778 | – | 71.6 ± 1.7
303.15 K, x2 = 0.09755, x3 = 0.3019 | – | 83.2 ± 2.3
308.15 K, x2 = 0.05128, x3 = 0.1778 | – | 59.2 ± 1.2
308.15 K, x2 = 0.09755, x3 = 0.3019 | – | 67.8 ± 1.4
313 K, x2 = 0.05128, x3 = 0.1778 | 2.01 ± 0.2 | –
313 K, x2 = 0.09755, x3 = 0.3019 | 2.01 ± 0.2 | –
313.15 K, x2 = 0.05128, x3 = 0.1778 | – | 49.3 ± 1.1
313.15 K, x2 = 0.09755, x3 = 0.3019 | – | 55.59 ± 0.97
323 K, x2 = 0.05128, x3 = 0.1778 | 2.64 ± 0.26 | –
323 K, x2 = 0.09755, x3 = 0.3019 | 2.64 ± 0.26 | –
333 K, x2 = 0.05128, x3 = 0.1778 | 3.35 ± 0.34 | –
333 K, x2 = 0.09755, x3 = 0.3019 | 3.35 ± 0.34 | –
343 K, x2 = 0.05128, x3 = 0.1778 | 4.13 ± 0.41 | –
343 K, x2 = 0.09755, x3 = 0.3019 | 4.13 ± 0.41 | –
353 K, x2 = 0.05128, x3 = 0.1778 | 4.98 ± 0.5 | –
353 K, x2 = 0.09755, x3 = 0.3019 | 4.98 ± 0.5 | –
363 K, x2 = 0.05128, x3 = 0.1778 | 5.89 ± 0.59 | –
363 K, x2 = 0.09755, x3 = 0.3019 | 5.89 ± 0.59 | –
373 K, x2 = 0.05128, x3 = 0.1778 | 6.84 ± 0.68 | –
373 K, x2 = 0.09755, x3 = 0.3019 | 6.84 ± 0.68 | –

CCCCCCCCCCCCCCCC[N+](C)(C)C.[Br-] + OC1OC[C@@H](O)[C@H](O)[C@H]1O + O
viscosity [mPa·s], 100 kPa
Settings | 298.15 K | 308.15 K | 318.15 K
x1 = 7.21e-06, x2 = 0 | 0.896 ± 0.06 | 0.742 ± 0.06 | 0.617 ± 0.06
x1 = 1.442e-05, x2 = 0 | 0.898 ± 0.06 | 0.744 ± 0.06 | 0.617 ± 0.06
x1 = 2.162e-05, x2 = 0 | 0.9 ± 0.06 | 0.745 ± 0.06 | 0.617 ± 0.06

C[P+](c1ccccc1)(c1ccccc1)c1ccccc1.[Br-] + OCC(O)CO
Settings | electrical conductivity [S/m] | viscosity [mPa·s]
298 K, 101.3 kPa, x1 = 0.2 | – | 352 ± 37
298.2 K, 101 kPa, x1 = 0.2 | – | 1894 ± 280
322.36 K, 101 kPa, x2 = 0.75 | – | 272 ± 8.9
327.54 K, 101 kPa, x2 = 0.75 | – | 204 ± 5.7
328.15 K, 101.3 kPa, x2 = 0.6364 | 0.09 ± 0.014 | 410 ± 190

CCCCCCCCCCCCCCCC[n+]1ccccc1.[Cl-] + OCC(O)CO + O
electrical conductivity [S/m], 100 kPa
Settings | 293.15 K | 298.15 K | 303.15 K | 308.15 K
x1 = 3.75e-06, x2 = 0.01019 | 0.0022 ± 0.0011 | 0.0024 ± 0.0011 | 0.0025 ± 0.0012 | 0.0029 ± 0.0012
x1 = 3.92e-06, x2 = 0.02128 | 0.0022 ± 0.0011 | 0.0023 ± 0.0011 | 0.0024 ± 0.0011 | 0.0032 ± 0.0013
x1 = 4.1e-06, x2 = 0.03338 | 0.0019 ± 0.0011 | 0.0022 ± 0.0011 | 0.0026 ± 0.0011 | 0.0032 ± 0.0012
x1 = 4.29e-06, x2 = 0.04664 | 0.0019 ± 0.001 | 0.0022 ± 0.0011 | – | 0.0032 ± 0.0012
x1 = 7.51e-06, x2 = 0.01019 | 0.004 ± 0.0012 | 0.0042 ± 0.0011 | 0.0046 ± 0.0012 | 0.0052 ± 0.0013
x1 = 7.84e-06, x2 = 0.02128 | 0.0035 ± 0.0011 | 0.0039 ± 0.0011 | 0.0043 ± 0.0012 | 0.0054 ± 0.0012
x1 = 8.2e-06, x2 = 0.03338 | 0.0031 ± 0.0011 | 0.0037 ± 0.0011 | 0.0043 ± 0.0011 | 0.0049 ± 0.0012
x1 = 8.59e-06, x2 = 0.04664 | 0.003 ± 0.001 | 0.0036 ± 0.0011 | 0.0044 ± 0.0011 | 0.0048 ± 0.0011
x1 = 1.126e-05, x2 = 0.01019 | 0.0058 ± 0.0012 | – | 0.0065 ± 0.0012 | 0.0076 ± 0.0013
x1 = 1.176e-05, x2 = 0.02128 | – | 0.0054 ± 0.0011 | 0.0064 ± 0.0012 | 0.0077 ± 0.0012
x1 = 1.23e-05, x2 = 0.03338 | 0.0043 ± 0.0011 | 0.0052 ± 0.0011 | 0.0059 ± 0.0011 | 0.0068 ± 0.0012
x1 = 1.288e-05, x2 = 0.04664 | 0.004 ± 0.001 | 0.005 ± 0.0011 | 0.0058 ± 0.0011 | 0.0065 ± 0.0011
x1 = 1.502e-05, x2 = 0.01019 | 0.0076 ± 0.0011 | 0.0076 ± 0.0011 | 0.0085 ± 0.0012 | –
x1 = 1.568e-05, x2 = 0.02128 | 0.0063 ± 0.0011 | – | 0.0084 ± 0.0012 | –
x1 = 1.639e-05, x2 = 0.03338 | 0.0056 ± 0.0011 | 0.0066 ± 0.0011 | 0.0077 ± 0.0011 | 0.0088 ± 0.0012
x1 = 1.718e-05, x2 = 0.04664 | 0.0052 ± 0.0011 | 0.0063 ± 0.0011 | 0.0072 ± 0.0011 | 0.0083 ± 0.0011
x1 = 1.877e-05, x2 = 0.01019 | 0.0087 ± 0.001 | 0.0092 ± 0.0011 | – | –
x1 = 1.96e-05, x2 = 0.02128 | 0.0076 ± 0.001 | 0.0087 ± 0.0011 | – | –
x1 = 2.049e-05, x2 = 0.03338 | 0.0069 ± 0.0011 | 0.0081 ± 0.0011 | 0.0093 ± 0.0011 | –
x1 = 2.147e-05, x2 = 0.04664 | 0.0063 ± 0.001 | 0.0078 ± 0.0011 | 0.0086 ± 0.0011 | –
x1 = 2.253e-05, x2 = 0.01019 | 0.0094 ± 0.001 | – | – | –
x1 = 2.351e-05, x2 = 0.02128 | 0.0083 ± 0.001 | 0.0096 ± 0.001 | – | –
x1 = 2.459e-05, x2 = 0.03338 | 0.0079 ± 0.001 | 0.0089 ± 0.001 | – | –
x1 = 2.577e-05, x2 = 0.04664 | 0.0073 ± 0.001 | 0.0089 ± 0.001 | 0.0097 ± 0.001 | –
x1 = 2.743e-05, x2 = 0.02128 | 0.0089 ± 0.001 | – | – | –
x1 = 2.869e-05, x2 = 0.03338 | 0.0086 ± 0.001 | 0.0095 ± 0.001 | – | –
x1 = 3.006e-05, x2 = 0.04664 | 0.0079 ± 0.001 | 0.0095 ± 0.001 | – | –
x1 = 3.135e-05, x2 = 0.02128 | 0.0095 ± 0.001 | – | – | –
x1 = 3.279e-05, x2 = 0.03338 | 0.0092 ± 0.001 | – | – | –
x1 = 3.436e-05, x2 = 0.04664 | 0.0084 ± 0.001 | – | – | –
x1 = 3.688e-05, x2 = 0.03338 | 0.0098 ± 0.001 | – | – | –
x1 = 3.865e-05, x2 = 0.04664 | 0.0089 ± 0.001 | – | – | –
x1 = 4.295e-05, x2 = 0.04664 | 0.0094 ± 0.001 | – | – | –

C[P+](c1ccccc1)(c1ccccc1)c1ccccc1.[Br-] + OCC(O)CO + OCCO
298.2 K, 101 kPa
Settings | viscosity [mPa·s]
x1 = 0.2, x2 = 0 | 121 ± 6
x1 = 0.2, x2 = 0.4 | 455 ± 39
x1 = 0.2, x2 = 0.8 | 1894 ± 280

C[N+](C)(C)CCO.O=S(=O)([N-]S(=O)(=O)C(F)(F)F)C(F)(F)F + OCCCCCO
101 kPa
Settings | viscosity [mPa·s]
318.15 K, x2 = 0.2149 | 37.3 ± 2.1
323.15 K, x2 = 0 | 39.3 ± 2.2
323.15 K, x2 = 0.2149 | 31.2 ± 1.8
328.15 K, x2 = 0.2149 | 26.3 ± 1.5
333.15 K, x2 = 0.2149 | 22.5 ± 1.3
338.15 K, x2 = 0.4145 | 16.11 ± 0.95
343.15 K, x2 = 0.6847 | 12.37 ± 0.74

C[N+](C)(C)CCO.O=S(=O)([N-]S(=O)(=O)C(F)(F)F)C(F)(F)F + OCCCO
101 kPa
Settings | viscosity [mPa·s]
313.15 K, x2 = 0.1272 | 47.2 ± 2.7
313.15 K, x2 = 0.4106 | 30 ± 1.7
313.15 K, x2 = 0.5712 | 24.9 ± 1.4
318.15 K, x2 = 0 | 46.8 ± 2.7
328.15 K, x2 = 0 | 33.4 ± 1.9
333.15 K, x2 = 0.1272 | 23.9 ± 1.4
333.15 K, x2 = 0.2297 | 20.5 ± 1.2
333.15 K, x2 = 0.6946 | 11.27 ± 0.68
338.15 K, x2 = 0.2297 | 17.8 ± 1
338.15 K, x2 = 0.6946 | 9.76 ± 0.6
338.15 K, x2 = 0.9474 | 8.48 ± 0.53
343.15 K, x2 = 0.2297 | 15.62 ± 0.92
348.15 K, x2 = 0 | 19.1 ± 1.1
348.15 K, x2 = 0.5712 | 8.63 ± 0.54
353.15 K, x2 = 0.8367 | 5.98 ± 0.39
